Test systems include NCI-H460; HL-60; UACC-62; OVCAR-8; M14; TK-10; CCRF-CEM; LXFL 529; SR; HT-29; KM12; OVCAR-3; SNB-19; Malme-3M; EKVX; BT-549; MDA-MB-435; Hs-578T; MCF7; T47D.
Assay in all cases: DTP human tumour cell line panel, 48 h

The values below come from ChEMBL document CHEMBL1201862, “PubChem BioAssay data set” (2004).

The term GI50 denotes the concentration that inhibits growth by half.

Molecules are shown by their SMILES.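 The compound was tested at five concentrations on cells cultured in 96-well plates, with a 48-hour exposure period. GI50 marks 50% less growth.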 Activity calls are given as the source filed them. Rule as the data show it: active = GI50 up to about 1.1 µM and inactive = higher.

Turning to `C=C(C)C1CC=C(C(=O)O)CC1` (stereo not given), the GI50 in the experiment with NCI-H460 was 1360 µM (inactive); with HL-60 it was 906 µM (inactive); in the experiment on UACC-62, 741 µM (inactive); in the experiment with OVCAR-8, 1200 µM (inactive); with M14, 1750 µM (inactive); with TK-10, 1580 µM (inactive). For the same molecule, the GI50 in the experiment on CCRF-CEM was 863 µM (inactive); in the experiment with LXFL 529 it was 1490 µM (inactive); in the experiment with SR, 1160 µM (inactive); with HT-29, 1450 µM (inactive); in the experiment on KM12, 859 µM (inactive); with OVCAR-3, 877 µM (inactive). Further, the GI50 was 1190 µM (inactive) in the experiment with SNB-19, 809 µM (inactive) in the experiment on Malme-3M and 2360 µM (inactive) with EKVX.

Turning to `N#CC(c1ccc(Cl)cc1)c1cccc(Cl)n1` (stereo not given), the GI50 was > 100 µM (inactive) with NCI-H460; 47.1 µM (inactive) in the experiment on HL-60; 42.6 µM (inactive) in the experiment on UACC-62; > 100 µM (inactive) in the experiment on OVCAR-8; 79.8 µM (inactive) in the experiment with M14; 33.2 µM (inactive) in the experiment with TK-10. Also, the GI50 with CCRF-CEM was > 100 µM (inactive); in the experiment with LXFL 529, 30.3 µM (inactive); in the experiment on SR, 45.1 µM (inactive); with HT-29 it was 83.6 µM (inactive); with KM12, 78.3 µM (inactive); in the experiment with OVCAR-3 it was 34 µM (inactive). Besides, the figures for the GI50 with SNB-19, in the experiment on Malme-3M and in the experiment with EKVX were > 100 µM (inactive), 74.5 µM (inactive) and 39 µM (inactive), respectively.

On to `CC1=CC(=O)NP(=O)(Oc2ccc(C)cc2)N1` (stereo not given), for which the GI50 with NCI-H460, with HL-60, with UACC-62, in the experiment with OVCAR-8, with M14 and in the experiment on TK-10 was > 100 µM (inactive) each time. The GI50 with CCRF-CEM, with LXFL 529, in the experiment on SR, in the experiment on HT-29, in the experiment with KM12 and in the experiment on OVCAR-3 was > 100 µM (inactive) throughout. The GI50 in the experiment on SNB-19, in the experiment with Malme-3M and in the experiment with EKVX was > 100 µM (inactive) throughout.

Consider `O=C(/C=C/c1ccc(OCC(=O)N2CCN(c3ccccc3)CC2)cc1)c1ccc(Cl)cc1`, for which the GI50 is > 94.2 µM (inactive) in the experiment on NCI-H460; 98.2 µM (inactive) in the experiment with HL-60; 61.8 µM (inactive) in the experiment with UACC-62; 45.9 µM (inactive) in the experiment on OVCAR-8; 43.4 µM (inactive) in the experiment with BT-549; 84.7 µM (inactive) with M14. For the same molecule, the GI50 in the experiment on MDA-MB-435 was > 100 µM (inactive); with TK-10, 31.6 µM (inactive); with CCRF-CEM it was > 100 µM (inactive); in the experiment on Hs-578T it was 21.7 µM (inactive); in the experiment with LXFL 529, > 92 µM (inactive); in the experiment with MCF7, > 100 µM (inactive). In addition, the GI50 was > 100 µM (inactive) in the experiment with SR; > 100 µM (inactive) with HT-29; > 100 µM (inactive) in the experiment on KM12; > 92 µM (inactive) with OVCAR-3; 18.6 µM (inactive) in the experiment on SNB-19; 52.7 µM (inactive) in the experiment with T47D. Besides, the values for the GI50 in the experiment on Malme-3M and with EKVX were 57.3 µM (inactive) and > 60.7 µM (inactive), respectively.

Consider `O=C1C2=C(CCCCC2)C2CCCCC12O` (stereo not given), for which the GI50 in the experiment with NCI-H460, in the experiment with HL-60, in the experiment on UACC-62, with OVCAR-8, with M14 and in the experiment with TK-10 was > 100 µM (inactive) each time. Moreover, the GI50 in the experiment with CCRF-CEM, with LXFL 529, with SR, in the experiment with HT-29, in the experiment on KM12 and in the experiment with OVCAR-3 was > 100 µM (inactive) in each case. Also, the GI50 in the experiment with SNB-19, with Malme-3M and in the experiment on EKVX was > 100 µM (inactive) each time.

As for `COc1cc(NS(C)(=O)=O)ccc1Nc1c2ccccc2nc2c1[nH]c1ccc(NC3OC(CO)C(O)C(O)C3O)cc12` (stereo not given), the GI50 was < 0.01 µM (active) in the experiment on NCI-H460; 0.0153 µM (active) with HL-60; 0.0213 µM (active) with UACC-62; 0.0504 µM (active) in the experiment on OVCAR-8; 1.3 µM (inactive) in the experiment on BT-549; 0.0399 µM (active) in the experiment with M14. Further, the GI50 is 0.798 µM (active) in the experiment on MDA-MB-435; 0.197 µM (active) in the experiment with TK-10; < 0.0132 µM (active) in the experiment with CCRF-CEM; 0.518 µM (active) in the experiment on Hs-578T; 0.9 µM (active) with LXFL 529; 0.023 µM (active) in the experiment on MCF7. For the same molecule, the concentration for 50% growth inhibition (GI50) with SR was < 0.01 µM (active); in the experiment with HT-29, 0.159 µM (active); in the experiment on KM12, 0.207 µM (active); in the experiment on OVCAR-3, 0.538 µM (active); in the experiment with SNB-19, 0.0242 µM (active); in the experiment with T47D, 0.0327 µM (active). For the same molecule, the results for the concentration for 50% growth inhibition (GI50) in the experiment with Malme-3M and in the experiment on EKVX were 0.0468 µM (active) and 0.782 µM (active), respectively.

As to `O=C(O)CNc1c2ccccc2nc2ccccc12`, the GI50 with NCI-H460 was > 100 µM (inactive); with HL-60, 48.2 µM (inactive); with UACC-62, > 100 µM (inactive); in the experiment on OVCAR-8, > 100 µM (inactive); in the experiment on M14 it was > 100 µM (inactive); in the experiment with TK-10, > 100 µM (inactive). The GI50 is > 100 µM (inactive) with CCRF-CEM; > 100 µM (inactive) in the experiment on LXFL 529; > 100 µM (inactive) in the experiment with SR; > 100 µM (inactive) in the experiment on HT-29; > 100 µM (inactive) with KM12; 80.4 µM (inactive) with OVCAR-3. Moreover, the GI50 in the experiment on SNB-19, with Malme-3M and in the experiment on EKVX was > 100 µM (inactive) throughout.

Take `NC(=O)C(=O)N/N=C1\C(=O)N(c2ccc(Cl)cc2Cl)C(=O)C1C(=O)Nc1ccc(Cl)cc1Cl` (stereo not given): the GI50 in the experiment on NCI-H460, in the experiment with HL-60, with UACC-62, with OVCAR-8, with M14 and in the experiment on TK-10 was > 100 µM (inactive) in each case. In addition, the GI50 in the experiment with CCRF-CEM, with LXFL 529, in the experiment with SR, in the experiment with HT-29, with KM12 and with OVCAR-3 was > 100 µM (inactive) in each case. Further, the GI50 in the experiment on SNB-19, with Malme-3M and in the experiment with EKVX was > 100 µM (inactive) in each case.

Take `N#CC1(C=O)c2ccccc2C=CN1C(=O)c1ccccc1` (stereo not given): the GI50 in the experiment on NCI-H460 is 73.6 µM (inactive); in the experiment on HL-60, 17.7 µM (inactive); in the experiment with UACC-62, 52.5 µM (inactive); in the experiment on OVCAR-8, 41.8 µM (inactive); in the experiment with M14, 26.8 µM (inactive); in the experiment on TK-10, 63.5 µM (inactive). For the same molecule, the GI50 with CCRF-CEM is 17.6 µM (inactive); with LXFL 529 it was 33.3 µM (inactive); with SR, 18.5 µM (inactive); with HT-29, 38.2 µM (inactive); in the experiment on KM12 it was 19.2 µM (inactive); in the experiment with OVCAR-3, 16.7 µM (inactive). In addition, the results for the GI50 in the experiment on SNB-19, in the experiment on Malme-3M and with EKVX were 58.3 µM (inactive), 30.6 µM (inactive) and 29.7 µM (inactive), respectively.

For `CCOC12OC3=C(CC1CC1=C(CCC1=O)O2)C(=O)CC3` (stereo not given), the GI50 in the experiment on NCI-H460, with HL-60, in the experiment with UACC-62, in the experiment on OVCAR-8, with M14 and in the experiment on TK-10 was > 100 µM (inactive) each time. In addition, the GI50 in the experiment with CCRF-CEM, with LXFL 529, in the experiment with SR, in the experiment with HT-29, in the experiment with KM12 and with OVCAR-3 was > 100 µM (inactive) in each case. For the same molecule, the GI50 in the experiment on SNB-19, in the experiment with Malme-3M and in the experiment on EKVX was > 100 µM (inactive) each time.

Take `Cc1c(Cl)ccc2[s+]snc12`: the GI50 in the experiment on NCI-H460 is 55 µM (inactive); with HL-60, 17.6 µM (inactive); in the experiment with UACC-62, 22.3 µM (inactive); with OVCAR-8, 21.6 µM (inactive); with M14, 24.5 µM (inactive); with TK-10, 62.7 µM (inactive). The GI50 in the experiment on CCRF-CEM is 23.2 µM (inactive); with LXFL 529, 29.6 µM (inactive); in the experiment on SR it was 25.2 µM (inactive); with HT-29, 34.4 µM (inactive); in the experiment on KM12, 43.1 µM (inactive); in the experiment with OVCAR-3, 51.3 µM (inactive). For the same molecule, the figures for the GI50 in the experiment on SNB-19, with Malme-3M and in the experiment with EKVX were 73.3 µM (inactive), 49.8 µM (inactive) and > 100 µM (inactive), respectively.
